Assay results reported in ChEMBL document CHEMBL5131569, “SAGE-718: A First-in-Class N-Methyl-d-Aspartate Receptor Positive Allosteric Modulator for the Potential Treatment of Cognitive Impairment” (J Med Chem, 2022).

What was measured:
[1] = Clearance in CD-1 mouse by LC-MS/MS analysis; assay type: ADME; settings: in vivo
[2] = biological target: Glutamate NMDA receptor; GRIN1/GRIN2A (Homo sapiens, UniProt Q05586+Q12879); assay: Positive allosteric modulation of recombinant human GluN1/GluN2A receptor stably expressed in HEK293 cells assessed as increase in glycine/L-glutamate-induced channel current at -70 mV holding potential by whole cell patch clamp method; assay type: cell-based
Glutamate NMDA receptor; GRIN1/GRIN2A, sequence (Q12879 whole entry, other chains not shown): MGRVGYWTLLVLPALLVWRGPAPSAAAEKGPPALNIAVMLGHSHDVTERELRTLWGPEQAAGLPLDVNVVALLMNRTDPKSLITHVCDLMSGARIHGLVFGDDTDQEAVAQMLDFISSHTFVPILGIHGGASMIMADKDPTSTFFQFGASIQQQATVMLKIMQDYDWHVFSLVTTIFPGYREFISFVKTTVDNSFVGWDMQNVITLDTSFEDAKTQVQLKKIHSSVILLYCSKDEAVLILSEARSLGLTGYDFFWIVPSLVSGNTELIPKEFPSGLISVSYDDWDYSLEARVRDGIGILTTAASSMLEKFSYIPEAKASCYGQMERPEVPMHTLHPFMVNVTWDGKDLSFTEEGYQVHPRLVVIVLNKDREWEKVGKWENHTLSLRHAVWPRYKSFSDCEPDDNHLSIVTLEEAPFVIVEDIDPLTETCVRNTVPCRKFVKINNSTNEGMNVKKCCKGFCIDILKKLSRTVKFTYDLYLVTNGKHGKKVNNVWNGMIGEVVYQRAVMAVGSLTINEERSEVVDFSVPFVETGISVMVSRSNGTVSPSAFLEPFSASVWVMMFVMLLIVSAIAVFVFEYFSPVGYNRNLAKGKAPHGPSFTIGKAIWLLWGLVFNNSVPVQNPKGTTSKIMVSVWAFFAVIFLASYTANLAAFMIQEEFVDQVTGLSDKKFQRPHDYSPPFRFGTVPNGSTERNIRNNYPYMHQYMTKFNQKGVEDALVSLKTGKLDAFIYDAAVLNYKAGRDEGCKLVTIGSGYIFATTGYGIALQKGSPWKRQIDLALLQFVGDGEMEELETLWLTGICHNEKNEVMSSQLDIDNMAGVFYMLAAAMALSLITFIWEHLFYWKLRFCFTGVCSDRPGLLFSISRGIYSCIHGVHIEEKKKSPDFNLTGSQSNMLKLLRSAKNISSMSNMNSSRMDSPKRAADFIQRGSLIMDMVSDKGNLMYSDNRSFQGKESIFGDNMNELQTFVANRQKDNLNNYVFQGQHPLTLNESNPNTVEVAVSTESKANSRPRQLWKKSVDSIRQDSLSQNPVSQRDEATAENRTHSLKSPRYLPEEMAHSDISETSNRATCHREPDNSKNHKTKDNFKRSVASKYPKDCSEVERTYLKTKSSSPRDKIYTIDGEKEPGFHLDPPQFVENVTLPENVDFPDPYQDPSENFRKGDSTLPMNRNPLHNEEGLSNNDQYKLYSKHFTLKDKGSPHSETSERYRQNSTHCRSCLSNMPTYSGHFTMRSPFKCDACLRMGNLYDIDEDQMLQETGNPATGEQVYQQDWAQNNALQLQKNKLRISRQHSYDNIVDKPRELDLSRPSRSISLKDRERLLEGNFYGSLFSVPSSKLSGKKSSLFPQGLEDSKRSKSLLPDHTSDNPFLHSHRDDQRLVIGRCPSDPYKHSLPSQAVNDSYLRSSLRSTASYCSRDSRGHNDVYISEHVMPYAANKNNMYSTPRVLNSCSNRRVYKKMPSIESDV

`C[C@H](CC[C@](C)(O)C(F)(F)F)[C@H]1CC[C@H]2[C@@H]3CC=C4C[C@@](C)(O)CC[C@]4(C)[C@H]3CC[C@]12C` [DALZANEMDOR] gave a clearance [1] of 5 mL/min/kg and an EC50 [2] of 86 nM.
